What was measured:
Type in all cases: in vivo
[1] = test system: mechanical hyperalgesia in the Seltzer model of neuropathic pain in the rat; test: Seltzer model, established neuropathic hyperalgesia, repeated administration of Compound A
From the text: (§1) Two animal models of chronic neuropathic pain may be used that involve some form of peripheral nerve damage. In the Seltzer model (Seltzer et al. (1990) Pain 43: 205-218) rats are anaesthetised and a small incision made mid-way up one thigh (usually the left) to expose the sciatic nerve. The nerve is carefully cleared of surrounding connective tissues at a site near the trochanter just distal to the point at which the posterior biceps semitendinosus nerve branches off the common sciatic nerve. A 7-0 silk suture is inserted into the nerve with a ⅜ curved, reversed-cutting mini-needle, and tightly ligated so that the dorsal ⅓ to ½ of the nerve thickness is held within the ligature. The muscle and skin are closed with sutures and clips and the wound dusted with antibiotic powder. In sham animals the sciatic nerve is exposed but not ligated and the wound closed as in nonsham animals.
(§2) In all chronic pain models (inflammatory and neuropathic) mechanical hyperalgesia is assessed by measuring paw withdrawal thresholds of both hindpaws to an increasing pressure stimulus using an Analgesymeter (Ugo-Basile, Milan). Mechanical allodynia is assessed by measuring withdrawal thresholds to non-noxious mechanical stimuli applied with von Frey hairs to the plantar surface of both hindpaws. Thermal hyperalgesia is assessed by measuring withdrawal latencies to a noxious thermal stimulus applied to the underside of each hindpaw. With all models, mechanical hyperalgesia and allodynia and thermal hyperalgesia develop within 1-3 days following surgery and persist for at least 50 days. For the assays described herein, drugs may be applied before and after surgery to assess their effect on the development of hyperalgesia, particularly approximately 14 days following surgery, to determine their ability to reverse established hyperalgesia.
(§3) The percentage reversal of hyperalgesia is calculated as follows: [formula] In the experiments disclosed herein, Wistar rats (male) are employed in pain models described above. Rats weigh approximately 120-140 grams at the time of surgery. All surgery is performed under enflurane/O2 inhalation anaesthesia. In all cases the wound is closed after the procedure and the animal allowed to recover. In all pain models employed, after a few days in all but the sham operated animals, a marked mechanical and thermal hyperalgesia and allodynia develops in which there is a lowering of pain threshold and an enhanced reflex withdrawal response of the hind-paw to touch, pressure or thermal stimuli. […] In the majority of animals the toes of the affected hind paw are held together and the foot turned slightly to one side; in some rats the toes are also curled under. The gait of the ligated rats varies, but limping is uncommon. […] The rats tend to be very sensitive to touch and may vocalise. Otherwise the general health an condition of the rats is good.
(§4) The effect of Compound A on mechanical hyperalgesia and allodynia is examined in the Seltzer model of neuropathic pain in the rat (Seltzer et al, 1990) as described above. With this model mechanical hyperalgesia and allodynia is induced in the ipsilateral (ligated) hindpaw approximately 1 day following surgery and persists for some weeks. Mechanical hyperalgesia is assessed by measuring paw withdrawal thresholds of both hindpaws to an increasing pressure stimulus using an Analgesymeter (Ugo-Basile, Milan). Mechanical allodynia is assessed by measuring withdrawal thresholds to non-noxious mechanical stimuli applied with von Frey hairs to the plantar surface of both hindpaws.
Inhibition of MMP7 may also reduce established mechanical hyperalgesia. 7 days following ligation ipsilateral paw withdrawal thresholds are reduced to approximately 65 g compared to contralteral readings of approximately 100 g, indicating mechanical hyperalgesia. Compound A (3 and 30 mg/kg) or vehicle (20% cremaphor/water) is then administered orally twice daily for 10 days. […]

[2] = test system: mechanical hyperalgesia in the Seltzer model of neuropathic pain in the rat; test: Seltzer model, development of mechanical hyperalgesia, repeated administration of Compound A
From the text: as §1, §2, §3, §4
Experimental Protocol: The effect of Compound A on the development of mechanical hyperalgesia is tested by administering the compound or vehicle (20% cremaphor/water) orally twice daily for 7 days starting on the day of surgery. Prior to surgery paw withdrawal thresholds of ipsilateral (ligated) and contralateral (non-ligated) paws are approximately 100 g. […]

[3] = test system: mechanical hyperalgesia in the Seltzer model of neuropathic pain in the rat; test: Seltzer model, perioperative administration of Compound A on neuropathic hyperalgesia; settings: for Paw withdrawal threshold: ipsilateral paw
From the text: as §1, §2, §3, §4
Compound A also affects the development of hyperalgesia following peri-operative dosing. […] The effect of the two doses of Compound A lasted for approximately 7 days by which time the degreee of hyperalgesia is similar to that seen in vehicle treated animals.
All animals received administration of vehicle or compound 1 h prior to surgery (pre) and 5 h following surgery (post).

## CC[C@H](C(=O)NO)[C@H](C(=O)N1CCCC[C@H]1C(=O)NC(C)C)c1ccc(Cl)cc1 [Compound A, (S)-1-[(2S,3S)-2-(4-Chloro-phenyl)-3-hydroxycarbamoyl-pentanoyl]-piperidine-2-carboxylic acid isopropylamide]
[1]; 3 mg/kg orally twice daily for 10 days starting 7 days after ligation, day 1 of study
  ipsilateral paw withdrawal threshold: 62.5 ± 2.1 g
[1]; 3 mg/kg orally twice daily for 10 days starting 7 days after ligation, day 2 of study
  ipsilateral paw withdrawal threshold: 68.3 ± 1.1 g
[1]; 3 mg/kg orally twice daily for 10 days starting 7 days after ligation, day 3 of study
  ipsilateral paw withdrawal threshold: 67.5 ± 2.5 g
[1]; 3 mg/kg orally twice daily for 10 days starting 7 days after ligation, day 4 of study
  ipsilateral paw withdrawal threshold: 80.0 ± 2.2 g
[1]; 3 mg/kg orally twice daily for 10 days starting 7 days after ligation, day 5 of study
  ipsilateral paw withdrawal threshold: 80.0 ± 3.4 g
[1]; 3 mg/kg orally twice daily for 10 days starting 7 days after ligation, day 6 of study
  ipsilateral paw withdrawal threshold: 80.8 ± 2.4 g
[1]; 3 mg/kg orally twice daily for 10 days starting 7 days after ligation, day 7 of study
  ipsilateral paw withdrawal threshold: 80.8 ± 2.4 g
[1]; 3 mg/kg orally twice daily for 10 days starting 7 days after ligation, day 8 of study
  ipsilateral paw withdrawal threshold: 80.8 ± 2.4 g
[1]; 3 mg/kg orally twice daily for 10 days starting 7 days after ligation, day 9 of study
  ipsilateral paw withdrawal threshold: 75.8 ± 3.5 g
[1]; 3 mg/kg orally twice daily for 10 days starting 7 days after ligation, day 10 of study
  ipsilateral paw withdrawal threshold: 81.7 ± 3.1 g
[1]; 3 mg/kg orally twice daily for 10 days starting 7 days after ligation, day 11 of study
  ipsilateral paw withdrawal threshold: 76.7 ± 2.1 g
[1]; 3 mg/kg orally twice daily for 10 days starting 7 days after ligation, day 12 of study
  ipsilateral paw withdrawal threshold: 78.3 ± 2.5 g
[1]; 3 mg/kg orally twice daily for 10 days starting 7 days after ligation, day 13 of study
  ipsilateral paw withdrawal threshold: 79.2 ± 2.4 g
[1]; 3 mg/kg orally twice daily for 10 days starting 7 days after ligation, day 14 of study
  ipsilateral paw withdrawal threshold: 75.8 ± 3.5 g
[1]; 3 mg/kg orally twice daily for 10 days starting 7 days after ligation, day 15 of study
  ipsilateral paw withdrawal threshold: 76.7 ± 2.5 g
[1]; 3 mg/kg orally twice daily for 10 days starting 7 days after ligation, day 18 of study
  ipsilateral paw withdrawal threshold: 75.8 ± 2.4 g
[1]; 3 mg/kg orally twice daily for 10 days starting 7 days after ligation, day 21 of study
  ipsilateral paw withdrawal threshold: 74.2 ± 1.5 g
[1]; 3 mg/kg orally twice daily for 10 days starting 7 days after ligation, day 23 of study
  ipsilateral paw withdrawal threshold: 70.0 ± 1.8 g
[1]; 3 mg/kg orally twice daily for 10 days starting 7 days after ligation, predose
  ipsilateral paw withdrawal threshold: 65.8 ± 0.8 g
[1]; 30 mg/kg orally twice daily for 10 days starting 7 days after ligation, day 1 of study
  ipsilateral paw withdrawal threshold: 68.3 ± 2.1 g
[1]; 30 mg/kg orally twice daily for 10 days starting 7 days after ligation, day 2 of study
  ipsilateral paw withdrawal threshold: 68.3 ± 1.7 g
[1]; 30 mg/kg orally twice daily for 10 days starting 7 days after ligation, day 3 of study
  ipsilateral paw withdrawal threshold: 71.7 ± 2.1 g
[1]; 30 mg/kg orally twice daily for 10 days starting 7 days after ligation, day 4 of study
  ipsilateral paw withdrawal threshold: 78.3 ± 4.8 g
[1]; 30 mg/kg orally twice daily for 10 days starting 7 days after ligation, day 5 of study
  ipsilateral paw withdrawal threshold: 84.2 ± 2.4 g
[1]; 30 mg/kg orally twice daily for 10 days starting 7 days after ligation, day 6 of study
  ipsilateral paw withdrawal threshold: 84.2 ± 4.4 g
[1]; 30 mg/kg orally twice daily for 10 days starting 7 days after ligation, day 7 of study
  ipsilateral paw withdrawal threshold: 83.3 ± 5.4 g
[1]; 30 mg/kg orally twice daily for 10 days starting 7 days after ligation, day 8 of study
  ipsilateral paw withdrawal threshold: 83.3 ± 2.5 g
[1]; 30 mg/kg orally twice daily for 10 days starting 7 days after ligation, day 9 of study
  ipsilateral paw withdrawal threshold: 79.2 ± 3.0 g
[1]; 30 mg/kg orally twice daily for 10 days starting 7 days after ligation, day 10 of study
  ipsilateral paw withdrawal threshold: 85.0 ± 2.6 g
[1]; 30 mg/kg orally twice daily for 10 days starting 7 days after ligation, day 11 of study
  ipsilateral paw withdrawal threshold: 82.5 ± 3.4 g
[1]; 30 mg/kg orally twice daily for 10 days starting 7 days after ligation, day 12 of study
  ipsilateral paw withdrawal threshold: 80.8 ± 2.4 g
[1]; 30 mg/kg orally twice daily for 10 days starting 7 days after ligation, day 13 of study
  ipsilateral paw withdrawal threshold: 80.0 ± 2.6 g
[1]; 30 mg/kg orally twice daily for 10 days starting 7 days after ligation, day 14 of study
  ipsilateral paw withdrawal threshold: 78.3 ± 1.7 g
[1]; 30 mg/kg orally twice daily for 10 days starting 7 days after ligation, day 15 of study
  ipsilateral paw withdrawal threshold: 78.3 ± 2.5 g
[1]; 30 mg/kg orally twice daily for 10 days starting 7 days after ligation, day 18 of study
  ipsilateral paw withdrawal threshold: 77.5 ± 2.1 g
[1]; 30 mg/kg orally twice daily for 10 days starting 7 days after ligation, day 21 of study
  ipsilateral paw withdrawal threshold: 81.7 ± 2.5 g
[1]; 30 mg/kg orally twice daily for 10 days starting 7 days after ligation, day 23 of study
  ipsilateral paw withdrawal threshold: 77.5 ± 2.1 g
[1]; 30 mg/kg orally twice daily for 10 days starting 7 days after ligation, predose
  ipsilateral paw withdrawal threshold: 66.7 ± 2.1 g
[1]; after 4 days of drug treatment, 3 and 30 mg/kg orally twice daily
  ipsilateral paw withdrawal thresholds compared to vehicle treated animals: significant increase in ipsilateral paw withdrawal thresholds
[1]; at the higher dose (30 mg/kg)
  persistence of increased thresholds following cessation of compound administration: up to 2 weeks
[2]; 3 days after the end of compound administration
  ipsilateral withdrawal thresholds versus vehicle treated animals: remain elevated above those of vehicle treated animals
[2]; contralateral (non-ligated) paw, following surgery, vehicle or compound administration, throughout the experiment
  withdrawal thresholds of contralateral paws: do not significantly change
[2]; ipsilateral paw, 3 mg/kg orally twice daily for 7 days from day of surgery, day 1 of treatment
  Paw withdrawal threshold: 72.5 ± 2.8 g
[2]; ipsilateral paw, 3 mg/kg orally twice daily for 7 days from day of surgery, day 2 of treatment
  Paw withdrawal threshold: 76.7 ± 3.1 g
[2]; ipsilateral paw, 3 mg/kg orally twice daily for 7 days from day of surgery, day 3 of treatment
  Paw withdrawal threshold: 78.3 ± 2.5 g
[2]; ipsilateral paw, 3 mg/kg orally twice daily for 7 days from day of surgery, day 4 of treatment
  Paw withdrawal threshold: 83.3 ± 2.8 g
[2]; ipsilateral paw, 3 mg/kg orally twice daily for 7 days from day of surgery, day 5 of treatment
  Paw withdrawal threshold: 83.3 ± 5.7 g
[2]; ipsilateral paw, 3 mg/kg orally twice daily for 7 days from day of surgery, day 7 of treatment
  Paw withdrawal threshold: 86.7 ± 4.8 g
[2]; ipsilateral paw, 3 mg/kg orally twice daily for 7 days from day of surgery, day 10 (3 days after end of dosing)
  Paw withdrawal threshold: 90.0 ± 4.7 g
[2]; ipsilateral paw, 3 mg/kg orally twice daily for 7 days from day of surgery, pre-surgery (baseline)
  Paw withdrawal threshold: 100.8 ± 2.4 g
[2]; ipsilateral paw, 30 mg/kg orally twice daily for 7 days from day of surgery, day 1 of treatment
  Paw withdrawal threshold: 78.3 ± 2.8 g
[2]; ipsilateral paw, 30 mg/kg orally twice daily for 7 days from day of surgery, day 2 of treatment
  Paw withdrawal threshold: 80.8 ± 4.0 g
[2]; ipsilateral paw, 30 mg/kg orally twice daily for 7 days from day of surgery, day 3 of treatment
  Paw withdrawal threshold: 83.3 ± 4.9 g
[2]; ipsilateral paw, 30 mg/kg orally twice daily for 7 days from day of surgery, day 4 of treatment
  Paw withdrawal threshold: 85.8 ± 4.4 g
[2]; ipsilateral paw, 30 mg/kg orally twice daily for 7 days from day of surgery, day 5 of treatment
  Paw withdrawal threshold: 83.2 ± 3.1 g
[2]; ipsilateral paw, 30 mg/kg orally twice daily for 7 days from day of surgery, day 7 of treatment
  Paw withdrawal threshold: 82.0 ± 5.8 g
[2]; ipsilateral paw, 30 mg/kg orally twice daily for 7 days from day of surgery, day 10 (3 days after end of dosing)
  Paw withdrawal threshold: 86.0 ± 4.0 g
[2]; ipsilateral paw, 30 mg/kg orally twice daily for 7 days from day of surgery, pre-surgery (baseline)
  Paw withdrawal threshold: 97.5 ± 2.1 g
[2]; ipsilateral paw, orally twice daily for 7 days from day of surgery, vehicle approximately 60 g
  withdrawal thresholds after repeated dosing: 80 to 90 g
[3]; 30 mg/kg oral 1 h prior to and 5 h following surgery
  duration of the effect of the two doses: approximately 7 days
[3]; 30 mg/kg oral 1 h prior to surgery and again 5 h following surgery
  degree of hyperalgesia (ipsilateral paw withdrawal thresholds versus vehicle): significant reduction in the degree of hyperalgesia
[3]; Compound A 30 mg/kg oral 1 h pre surgery + Compound A 5 h post, day 1 of study
  Paw withdrawal threshold: 79.2 ± 2.4 g
[3]; Compound A 30 mg/kg oral 1 h pre surgery + Compound A 5 h post, day 2 of study
  Paw withdrawal threshold: 81.7 ± 2.1 g
[3]; Compound A 30 mg/kg oral 1 h pre surgery + Compound A 5 h post, day 3 of study
  Paw withdrawal threshold: 80.0 ± 2.2 g
[3]; Compound A 30 mg/kg oral 1 h pre surgery + Compound A 5 h post, day 4 of study
  Paw withdrawal threshold: 77.5 ± 1.1 g
[3]; Compound A 30 mg/kg oral 1 h pre surgery + Compound A 5 h post, day 6 of study
  Paw withdrawal threshold: 73.3 ± 3.1 g
[3]; Compound A 30 mg/kg oral 1 h pre surgery + Compound A 5 h post, day 7 of study
  Paw withdrawal threshold: 70.8 ± 2.4 g
[3]; Compound A 30 mg/kg oral 1 h pre surgery + Compound A 5 h post, pre-surgery (baseline)
  Paw withdrawal threshold: 101.7 ± 1.1 g
[3]; Compound A 30 mg/kg oral 1 h pre surgery + vehicle 5 h post, day 1 of study
  Paw withdrawal threshold: 75.8 ± 2.4 g
[3]; Compound A 30 mg/kg oral 1 h pre surgery + vehicle 5 h post, day 2 of study
  Paw withdrawal threshold: 69.2 ± 3.7 g
[3]; Compound A 30 mg/kg oral 1 h pre surgery + vehicle 5 h post, day 3 of study
  Paw withdrawal threshold: 70.8 ± 2.0 g
[3]; Compound A 30 mg/kg oral 1 h pre surgery + vehicle 5 h post, day 4 of study
  Paw withdrawal threshold: 67.5 ± 1.7 g
[3]; Compound A 30 mg/kg oral 1 h pre surgery + vehicle 5 h post, day 6 of study
  Paw withdrawal threshold: 70.0 ± 2.2 g
[3]; Compound A 30 mg/kg oral 1 h pre surgery + vehicle 5 h post, day 7 of study
  Paw withdrawal threshold: 65.0 ± 3.2 g
[3]; Compound A 30 mg/kg oral 1 h pre surgery + vehicle 5 h post, pre-surgery (baseline)
  Paw withdrawal threshold: 105.0 ± 1.3 g
[3]; single dose 1 h prior to surgery
  inhibition of hyperalgesia: significant inhibition of hyperalgesia only at 1 day post surgery
